Data on 14 compounds can be found in US9388179B2, “N-substituted indazole sulfonamide compounds with selective activity in voltage-gated sodium channels” (Merck Sharp & Dohme Corp., priority 2012, dated 2016).

Bounds are passed on as bounds.

Assay type in all cases: cell-based
Assay [1] addresses T1, human Nav1.7 channels stably expressed in HEK 293 cells (Homo sapiens, UniProt Q15858).
T1 construct: expressed in transfected cells; host or cells: HEK 293
As to the kind of experiment: PatchXpress 7000 automated patch-clamp, inactivated state block. Conditions: PatchXpress technique; read-out: Nav 1.7 potency. The procedure: (§1) For all electrophysiology experiments, offline analysis was used to correct for current rundown and to determine percent inhibition as a function of drug concentration. IC50 values were determined by fitting to the Hill equation.
(§2) Sodium Current Measurements on the PatchXpress 7000®:
(§3) To measure inactivated state block of sodium channels, test compounds were characterized in an automated PatchXpress® assay (Molecular Devices) using a double-pulse protocol on human Nav1.7 and Nav1.5 channels stably expressed in HEK 293 cells. Cells were held at a potential 20 mV negative to V0.5 inact. An 8000 ms pre-pulse 7 mV positive to V0.5 inact was given followed by a hyperpolarizing 2 ms pulse to −120 mV and a 20 ms test pulse to −20 mV. Protocol was applied to cells in the absence, presence of compound and after washout. The temperature of PatchXpress instruments was maintained at 22° C. The following recording solutions were used. Internal solution (mM): 30 CsCl, 5 HEPES, 10 EGTA, 120 CsF, 5 NaF, 2 MgCl2. External solution (mM): 120 NMDG, 40 NaCl, 1 KCl, 0.5 MgCl2, 5 HEPES, 2.7 CaCl2.
(Patch clamp records ionic current or voltage across a cell membrane.)

Assay [2] concerns the target T2, human Nav1.5 channels stably expressed in HEK 293 cells (Homo sapiens, UniProt Q14524).
T2 construct: expressed in transfected cells; host or cells: HEK 293
The assay is described as above. Conditions: PatchXpress technique. Here is the method: as §1, §2, §3

The target in assay [3] is T1, human Nav1.7 channels stably expressed in HEK 293 cells. As to the kind of experiment: IonWorks Quattro automated patch-clamp, inactivated state block. The following applies: IonWorks technique; read-out: Nav 1.7 potency. Here is the method: as §1
(§4) Cell Based Assays for Nav 1.7 and Nav 1.5 Activity
(§5) Compounds were tested on human Nav1.7 and Nav1.5 channels stably expressed in HEK 293 cells. […] Cells were sealed on a planar substrate using the Population Patch […] (PPC) technology. Electrical access was obtained using both nystatin and amphotericin. A double-pulse protocol was used for the determination of IC50 values for inactivated state block. Nav1.7 and Nav1.5 expressing cells were voltage clamped at −100 mV and −110 mV, respectively. A depolarizing prepulse to −10 mV (Nav1.7) or −30 mV (Nav1.5) for 1000 ms followed by a 10 ms repolarization to −100 mV (Nav1.7) or −110 mV (Nav1.5) was given to generate fractional channel inactivation of 50%, followed by a 10 ms test pulse to −10 mV (Nav1.7) or −30 mV (Nav1.5) to measure peak current in control conditions and after compound addition. The following recording solutions were used (mM). External: 150 NaCl, 2 CaCl2, 5 KCl, 1 MgCl2, 10 HEPES, 12 Dextrose; internal: 120 CsF, 30 CsCl, 10 EGTA, 5 HEPES, 5 NaF, 2 MgCl2.

Assay [4] concerns the target T2, human Nav1.5 channels stably expressed in HEK 293 cells. The assay is described as above. The following applies: IonWorks technique. Here is the method: as §1, §4, §5
The target in assay [5] is T3, Nav 1.5 (Homo sapiens, UniProt Q14524).
T3 construct: expressed in transfected cells; host or cells: HEK 293
As to the kind of experiment: Comparative examples, Nav 1.5 activity (Patch Express or Ion Works, technique not given). The following applies: Table IX. The procedure:
(§6) Potency of the example compounds was assayed using Patch Express or Ion Works techniques, as reported herein. The results are reported below following each example number as follows: Ex-(no.) Nav 1.7 potency (nM) [ratio 1.5:1.7=Nav 1.5 potency (nM)/Nav1.7 potency (nM)].

For assay [6], the target named is T4, Nav 1.7 (Homo sapiens, UniProt Q15858).
T4 construct: expressed in transfected cells; host or cells: HEK 293
As to the kind of experiment: Comparative examples, Nav 1.7 activity (Patch Express or Ion Works, technique not given). Conditions: Table IX, read-out: Activity: Nav 1.7 potency. The procedure: as §6

T2 sequence (Q14524 whole entry): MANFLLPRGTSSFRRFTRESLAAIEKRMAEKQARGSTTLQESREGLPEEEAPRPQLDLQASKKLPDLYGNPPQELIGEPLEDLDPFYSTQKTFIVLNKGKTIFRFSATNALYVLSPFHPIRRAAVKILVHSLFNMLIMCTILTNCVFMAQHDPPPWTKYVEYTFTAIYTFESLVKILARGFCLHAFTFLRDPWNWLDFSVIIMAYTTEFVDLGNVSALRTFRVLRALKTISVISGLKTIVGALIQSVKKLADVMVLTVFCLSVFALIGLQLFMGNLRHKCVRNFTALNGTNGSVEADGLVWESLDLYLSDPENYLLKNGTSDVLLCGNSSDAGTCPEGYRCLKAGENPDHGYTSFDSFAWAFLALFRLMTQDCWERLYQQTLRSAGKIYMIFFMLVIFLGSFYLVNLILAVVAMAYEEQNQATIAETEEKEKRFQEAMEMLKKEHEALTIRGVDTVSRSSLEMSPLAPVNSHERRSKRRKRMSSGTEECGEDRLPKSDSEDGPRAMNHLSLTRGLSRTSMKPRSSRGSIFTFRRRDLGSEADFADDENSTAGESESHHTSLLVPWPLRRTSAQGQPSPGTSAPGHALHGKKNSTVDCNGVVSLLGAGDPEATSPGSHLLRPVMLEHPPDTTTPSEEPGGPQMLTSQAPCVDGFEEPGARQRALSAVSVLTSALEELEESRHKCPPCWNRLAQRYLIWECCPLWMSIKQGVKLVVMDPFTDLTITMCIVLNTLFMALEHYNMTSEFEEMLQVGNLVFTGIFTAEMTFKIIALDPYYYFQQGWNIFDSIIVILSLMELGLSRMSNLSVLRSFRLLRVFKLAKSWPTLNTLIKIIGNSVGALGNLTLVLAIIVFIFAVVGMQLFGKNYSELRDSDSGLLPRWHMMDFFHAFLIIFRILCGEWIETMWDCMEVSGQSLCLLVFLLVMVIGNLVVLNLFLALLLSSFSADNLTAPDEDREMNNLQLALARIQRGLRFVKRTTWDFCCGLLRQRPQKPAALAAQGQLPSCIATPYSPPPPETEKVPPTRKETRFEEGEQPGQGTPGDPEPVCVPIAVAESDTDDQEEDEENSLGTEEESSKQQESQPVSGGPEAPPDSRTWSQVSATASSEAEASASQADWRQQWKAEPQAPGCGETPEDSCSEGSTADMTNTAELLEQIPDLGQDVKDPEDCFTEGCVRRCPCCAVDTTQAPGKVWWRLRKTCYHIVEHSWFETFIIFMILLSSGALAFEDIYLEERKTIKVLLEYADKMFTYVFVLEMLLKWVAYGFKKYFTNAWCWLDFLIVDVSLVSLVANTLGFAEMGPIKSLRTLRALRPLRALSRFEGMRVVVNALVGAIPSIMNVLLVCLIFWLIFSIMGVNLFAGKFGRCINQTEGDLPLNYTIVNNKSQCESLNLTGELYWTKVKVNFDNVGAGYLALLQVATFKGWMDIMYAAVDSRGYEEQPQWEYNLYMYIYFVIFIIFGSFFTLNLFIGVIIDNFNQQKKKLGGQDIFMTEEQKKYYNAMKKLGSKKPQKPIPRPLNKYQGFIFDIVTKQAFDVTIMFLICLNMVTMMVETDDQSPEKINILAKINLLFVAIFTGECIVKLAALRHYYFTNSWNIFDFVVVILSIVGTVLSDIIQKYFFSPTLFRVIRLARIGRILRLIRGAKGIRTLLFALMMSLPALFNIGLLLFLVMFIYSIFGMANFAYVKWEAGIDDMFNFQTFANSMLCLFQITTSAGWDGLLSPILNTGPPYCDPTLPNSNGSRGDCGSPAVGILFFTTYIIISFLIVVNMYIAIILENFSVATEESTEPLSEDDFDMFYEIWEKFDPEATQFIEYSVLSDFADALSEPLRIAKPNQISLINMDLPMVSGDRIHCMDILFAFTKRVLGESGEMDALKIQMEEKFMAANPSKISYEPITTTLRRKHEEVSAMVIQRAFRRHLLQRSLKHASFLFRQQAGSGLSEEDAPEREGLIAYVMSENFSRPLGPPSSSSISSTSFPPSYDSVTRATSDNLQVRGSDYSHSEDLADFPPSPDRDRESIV
T3 sequence (Q14524 whole entry): as above

Regarding `CN(C)CCNC(=O)c1cccc(-c2ccccc2Cn2ncc3cc(S(=O)(=O)Nc4ncns4)c(F)cc32)c1` [Ex-8, N-[2-(dimethylamino)ethyl]-2′-{[6-fluoro-5-(1,2,4-thiadiazol-5-ylsulfamoyl)-1H-indazol-1-yl]methyl}biphenyl-3-carboxamide], the figures for the IC50 in assay [1] and in assay [3] were 1130 nM and 856 nM, respectively. For the same compound, the “Ratio 1.5:1.7 = Nav 1.5 potency (nM)/Nav1.7 potency (nM)” value (shortened to “Ratio 1.5:1.7 = Nav 1.5 potency”) is reported as 27 in assay [2] and 39 in assay [4].
Take `NC/C=C/c1ccccc1Cn1ncc2cc(S(=O)(=O)Nc3ncns3)c(F)cc21` [Ex-5, (E)-1-(2-(3-aminoprop-1-en-1-yl)benzyl)-6-fluoro-N-(1,2,4-thiadiazol-5-yl)-1H-indazole-5-sulfonamide]: the IC50 in assay [1] came to 54 nM; in assay [3], 34 nM. Further, the “Ratio 1.5:1.7 = Nav 1.5 potency” value is reported as 560 in assay [2] and 963 in assay [4].
Consider `Nc1cc(-c2cc(Cl)ccc2Cn2ncc3cc(S(=O)(=O)Nc4ncns4)ccc32)ccn1` [CE-01, 1-(2-(2-aminopyridin-4-yl)-4-chlorobenzyl)-N-(1,2,4-thiadiazol-5-yl)-1H-indazole-5-sulfonamide], for which the “Activity: Ratio 1.5:1.7” value in assay [5] is recorded as 1. Also, the IC50 in assay [6] is 27000 nM.
On to `NC/C=C/c1ccccc1Cn1ncc2cc(S(=O)(=O)Nc3ncns3)ccc21` [Ex-15, 1-{2-[(1E)-3-aminoprop-1-en-1-yl]benzyl}-N-1,2,4-thiadiazol-5-yl-1H-indazole-5-sulfonamide], for which the results for the IC50 in assay [1] and in assay [3] were 127 nM and 159 nM, respectively. Also, the “Ratio 1.5:1.7 = Nav 1.5 potency” value in assay [2] is 237; in assay [4], 207.
As to `O=S(=O)(Nc1ncns1)c1cc2cnn(Cc3ccccc3-c3cccc4c3CCNC4)c2cc1F` [Ex-10, 6-fluoro-1-[2-(1,2,3,4-tetrahydroisoquinolin-5-yl)benzyl]-N-1,2,4-thiadiazol-5-yl-1H-indazole-5-sulfonamide], the IC50 came to 782 nM in assay [1] and 1080 nM in assay [3]. Also, the “Ratio 1.5:1.7 = Nav 1.5 potency” value is 38 in assay [2] and 30 in assay [4].
The like results for `O=S(=O)(Nc1ncns1)c1cc2cnn(Cc3cccc4c3CNCC4)c2cc1F` [Ex-1, 6-fluoro-1-((1,2,3,4-tetrahydroisoquinolin-8-yl)methyl)-N-(1,2,4-thiadiazol-5-yl)-1H-indazole-5-sulfonamide] were, in that order, 153 nM, 106 nM, 310 and 311.
The like results for `C[C@@H](c1cccc2c1CNCC2)n1ncc2cc(S(=O)(=O)Nc3ncns3)c(F)cc21` [Ex-64, (S)-6-fluoro-1-(1-(1,2,3,4-tetrahydroisoquinolin-8-yl)ethyl)-N-(1,2,4-thiadiazol-5-yl)-1H-indazole-5-sulfonamide] were, in that order, 833 nM, 777 nM, 36 and 42.
Taken in the same sequence, the figures for `O=S(=O)(Nc1ncns1)c1ccc2c(cnn2Cc2ccc(Cl)cc2-c2cccc3c2CCNC3)c1` [Ex-25, 1-[4-chloro-2-(1,2,3,4-tetrahydroisoquinolin-5-yl)benzyl]-N-1,2,4-thiadiazol-5-yl-1H-indazole-5-sulfonamide] were 2900 nM, 1480 nM, 10 and 23.
Turning to `O=S(=O)(Nc1nccs1)c1ccc2nn(Cc3ccc(OC(C(F)(F)F)(C(F)(F)F)C(F)(F)F)cc3)cc2c1` [CE-03, 2-(4-(1,1,1,3,3,3-hexafluoro-2-(trifluoro-methyl)propan-2-yloxy)benzyl)-N-(thiazol-2-yl)-2H-indazole-5-sulfonamide], the “Activity: Ratio 1.5:1.7” value in assay [5] is 1. For the same compound, in assay [6], the IC50 is 33000 nM.
Take `O=S(=O)(Nc1nccs1)c1ccc2c(cnn2Cc2ccc(OC(C(F)(F)F)(C(F)(F)F)C(F)(F)F)cc2)c1` [CE-02, 1-(4-(1,1,1,3,3,3-hexafluoro-2-(trifluoro-methyl)propan-2-yloxy)benzyl)-N-(thiazol-2-yl)-1H-indazole-5-sulfonamide]: the “Activity: Ratio 1.5:1.7” value in assay [5] is recorded as 1. The IC50 in assay [6] turned out to be 33000 nM.
As to `O=S(=O)(Nc1ncns1)c1ccc2c(cnn2Cc2ccccc2)c1` [Ex-19, 1-benzyl-N-1,2,4-thiadiazol-5-yl-1H-indazole-5-sulfonamide], the figures for the IC50 in assay [1] and in assay [3] were 3030 nM and 856 nM, respectively. The results for the “Ratio 1.5:1.7 = Nav 1.5 potency” value in assay [2] and in assay [4] were 6 and 39, respectively.
The like results for `O=S(=O)(Nc1ncns1)c1ccc2c(cnn2Cc2ccccc2-c2cccc3c2CCNC3)c1` [Ex-22, 1-[2-(1,2,3,4-tetrahydroisoquinolin-5-yl)benzyl]-N-1,2,4-thiadiazol-5-yl-1H-indazole-5-sulfonamide] were, in that order, 2900 nM, 1460 nM, above 10 and 23.
The like results for `NC1CCc2cccc(Cn3ncc4cc(S(=O)(=O)Nc5ncns5)c(F)cc43)c2C1` (single isomer, unassigned) [Ex-14, (S or R)-1-((7-amino-5,6,7,8-tetrahydronaphthalen-1-yl)methyl)-6-fluoro-N-(1,2,4-thiadiazol-5-yl)-1H-indazole-5-sulfonamide] were, in that order, 21 nM, 24 nM, 1480 and 1394.
Taken in the same sequence, the figures for `O=S(=O)(Nc1ncns1)c1ccc2c(cnn2Cc2ccccc2C2=CCNCCC2)c1` [Ex-23, 1-[2-(2,5,6,7-tetrahydro-1H-azepin-4-yl)benzyl]-N-1,2,4-thiadiazol-5-yl-1H-indazole-5-sulfonamide] were 4470 nM, 1700 nM, above 7 and 19.
